Source: patent US20090118135A1, “METHODS AND COMPOUNDS FOR REGULATING APOPTOSIS” (The Burnham Institute, priority 2007, published 2009)

Molecular target: T1, GST-Bfl-1 (Homo sapiens, UniProt Q16548)
T1 construct: lacking their C-terminal transmembrane domains (about the last 20 amino acids) (“ΔTM”); made in house; host or cells: XL-1 Blue E. coli, pGEX 4T-1
T1 sequence (Q16548 1-155 limits assumed): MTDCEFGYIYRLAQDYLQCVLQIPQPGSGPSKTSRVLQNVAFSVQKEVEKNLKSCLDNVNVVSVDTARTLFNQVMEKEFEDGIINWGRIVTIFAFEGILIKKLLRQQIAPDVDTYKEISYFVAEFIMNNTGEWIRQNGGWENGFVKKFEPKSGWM
Assay: Bfl-1/FITC-Bid BH3 competitive fluorescence polarization assay
Assay type: binding
Conditions: primary HTS hits, MLSCN library (PubChem SIDs), Table 5B
Procedure: A FPA was performed to determine the binding affinity of FITC-Bid BH3 peptide to Bcl-2 proteins. […] IC50 determinations were performed using GraphPad Prism software (GraphPad, Inc., San Diego, Calif.). FPA competition assays were performed using the same procedure described above, except that 100 nM of GST-Bfl-1 protein in a volume of 45 μl was incubated with 5 μl (50 μM) test compounds in DMSO per well for 30 min prior to addition of 50 μl (5 nM) FITC-Bid BH3 peptide. The final DMSO concentration was 5% when the reactions brought to fall volume of 100 μl. Fluorescence polarization was measured after 10 min. Compounds that reduced the fluorescence polarization by 50% were considered hits.

Row | % Activity | FRatio | SMILES
1 | 83.7% | 0.97 | CC1CC(C)CN(C(=O)c2ccc3c(c2NCCO)C(=O)c2ccccc2C3=O)C1 (stereo not shown) [Compound 14734023]
2 | 89.8% | 0.61 | O=c1c([N+](=O)[O-])cc(C(F)(F)F)cn1Cc1cccc(Cl)c1 [Compound 17402915]
3 | 58.5% | 1.42 | Nc1cc2nsnc2cc1Br [Compound 17407909]
4 | 74.6% | 0.59 | O=C(O)CCc1ccc(-c2cccs2)n1CCC(=O)O [Compound 848328]
5 | 52.7% | 0.82 | c1cc2c3c(cccc3c1)NC1(CCCCC1)N2 [Compound 14724643]
6 | 66.5% | 0.86 | Cc1ccc(S(=O)(=O)Cc2ccc(C(=O)O)o2)cc1 [Compound 14737647]
7 | 73.3% | 0.75 | CC1CCN(c2ccc(C(=O)O)cc2N)CC1 [Compound 852908]
8 | 70.8% | 1 | CCN(CC)CCc1c(C)[nH]c(C(=O)OCc2ccccc2)c1C [Compound 853427]
9 | 71.7% | 0.76 | COC(=O)c1[nH]c2cccc(OC)c2c1NC(=O)CCN1CCC(C(N)=O)CC1 [Compound 863493]
10 | 78.5% | 0.61 | Cc1c(CN(C)C)c2c(n1Cc1ccccc1)C(=O)c1ccc(Br)cc1-2 [Compound 14742663]
11 | 53.9% | 0.79 | Cn1c(SCC(=O)Nc2ccc3nc(SCC(=O)N4CCCC4)sc3c2)nnc1-c1ccc(N)cc1 [Compound 17386645]
12 | 56.4% | 1.35 | Cc1nn2c(N)csc2nc1=O [Compound 846443]
13 | 66.1% | 1.05 | Cc1cc(C)c(NC(=O)C2=CC3C(N=C4SC=CN43)S2)c(C)c1 (stereo not shown) [Compound 3712588]
14 | 68.1% | 0.73 | CCc1ccc(NC(=O)c2noc3c2CCC3)cc1 [Compound 14733222]
15 | 66.2% | 1.37 | COc1ccc(NC(=O)C2CCN(c3nc(C)nc4c3CCC4)CC2)cc1 [Compound 852694]
16 | 70.9% | 0.77 | O=C(COc1ccccc1C(=O)N/N=C/c1ccc(O)c(O)c1)N/N=C/c1ccc(O)c(O)c1 [Compound 17409262]
17 | 78.8% | 0.85 | COc1ccc(C(=O)Nc2ccc(N3CCCC3)cc2)cc1 [Compound 14739290]
18 | 61.5% | 0.99 | Cc1ccc(S(=O)(=O)NC(=O)c2cc(C)n(CCCn3ccnc3)c2C)cc1 [Compound 3173759]
19 | 66.9% | 1.02 | O=c1oc2c3c4c(cc2s1)CCCN4CCC3 [Compound 7978324]
20 | 67.6% | 0.84 | COc1ccc(C(N)CCc2ccc(C)o2)cc1 (stereo not shown) [Compound 4244526]
21 | 107.1% | 1.18 | O=C(NCc1ccccn1)c1ccc2nc(-c3ccco3)c(-c3ccco3)nc2c1 [Compound 4245216]

Row | % Activity | FRatio | SMILES
22 | 82.5% | 0.51 | COc1ccc(-c2coc3c(CN4CCCCC4)c(O)c(CN4CCCCC4)c(O)c3c2=O)cc1 [Compound 4244723]
23 | 60.4% | 0.83 | c1coc(-c2nn3c(-c4ccco4)nnc3s2)c1 [Compound 853208]
24 | 104.8% | 0.49 | COc1ccc2c(c1)c(=O)oc1cc(OCC(=O)N3CCC(C)CC3)ccc12 [Compound 4257486]
25 | 57.1% | 0.97 | CN(CC(=O)Nc1c(Cl)cccc1Cl)C(=O)CCCN1C(=O)c2ccccc2C1=O [Compound 17388283]
26 | 88.4% | 0.84 | O=C(Nc1cccnc1)c1ccc(S(=O)(=O)N2CCCCCC2)cc1 [Compound 14744015]
27 | 52.2% | 0.88 | O=C(Nc1ccccc1)c1ccc2nc(-c3ccco3)c(-c3ccco3)nc2c1 [Compound 4258186]
28 | 69.9% | 0.59 | C=CCNS(=O)(=O)c1nc(C)c(Cl)c(C)c1C#N [Compound 4251530]
29 | 70% | 0.86 | O=C(O)c1cccc(-n2cccc2/C=N/O)c1 [Compound 4243236]
30 | 98.3% | 0.53 | Cc1ccc2c(c1C)NC(C(=O)O)C1CC=CC21 (stereo not shown) [Compound 844096]
31 | 111.5% | 0.4 | CCOC(=O)c1ccc2c(c1)C1C=CCC1C(C(=O)O)N2 (stereo not shown) [Compound 4263567]
32 | 62.6% | 0.6 | CN(C)c1ccc(NC(=O)CN2C(=O)CC(c3ccccc3)=Nc3ccccc32)cc1 [Compound 853473]
33 | 75.2% | 0.83 | O=C(CSc1ccc(Cl)cc1)c1ccco1 [Compound 3711335]
34 | 95.8% | 0.65 | Cc1ccc(C)n1-c1cccc(C(=O)O)c1 [Compound 4257870]
35 | 52% | 1.16 | O=C(COC(=O)CC12CC3CC(CC(C3)C1)C2)Nc1ncc(Cl)cc1Cl [Compound 14744137]
36 | 70% | 0.53 | CCOc1ccc(C(=O)Nc2ccc(N3CCN(C)CC3)cc2)cc1Br [Compound 4256635]
37 | 53.9% | 0.98 | O=S(=O)(c1ccccc1)N(CC(O)CN1CCCCC1)c1ccccc1 (stereo not shown) [Compound 859970]
38 | 63.4% | 0.8 | Cc1ccc(S(=O)(=O)NCC(=O)OCC(=O)Nc2ncc(Cl)cc2Cl)cc1 [Compound 3711819]
39 | 58.8% | 0.88 | COc1ccc(N2C(=O)c3cccc4cccc(c34)C2=O)nn1 [Compound 4265126]
40 | 60.6% | 0.89 | Cc1cccn2c(=O)c3cc(C(=O)NCC4CCCO4)c(=N)n(Cc4cccnc4)c3nc12 (stereo not shown) [Compound 849581]
41 | 51.8% | 0.97 | O=C(NCCN1CCCCCC1)C1CCC(CNS(=O)(=O)c2cccc3cccnc23)CC1 (stereo not shown) [Compound 7969436]
42 | 54.8% | 0.6 | C=CCn1c(SCc2cc(=O)n3ccsc3n2)nnc1C1CCCCC1 [Compound 3716212]

Row | % Activity | FRatio | SMILES
43 | 84.4% | 0.7 | N/C(=N\N=C\c1ccc(-c2ccc(O)c(C(=O)O)c2)o1)N[N+](=O)[O-] [Compound 17416093]
44 | 78.6% | 0.88 | Cc1ccc(N2CN=c3s/c(=C\c4cccnc4)c(=O)n3C2)cc1 [Compound 858221]
45 | 91.7% | 0.71 | Cc1ccc(/N=N/c2ccc(O)c(/C=N/NC(=O)c3ccc(N)cc3)c2)cc1C [Compound 16952937]
46 | 72.8% | 0.46 | COC(=O)c1ccccc1NC(=O)c1noc2c1CCC2 [Compound 4245926]
47 | 65.4% | 1.13 | CC(=O)C1=C(C)OC(N)=C(C#N)C1c1ccco1 (stereo not shown) [Compound 857779]
48 | 51.8% | 1 | CCS(=O)(=O)NCc1ccc2c(c1)cc(C)n2C [Compound 14733498]
49 | 64.3% | 0.58 | c1cc2c3c(cccc3c1)NC1(CCCCCC1)N2 [Compound 4263637]
50 | 93.8% | 0.72 | c1ccc(CSc2nnc(-c3ccco3)c(-c3ccco3)n2)cc1 [Compound 4260465]
51 | 96.4% | 1.26 | CN1CCC2=C(C1)SC1C2C(NCc2ccco2)=Nc2nnnn21 (stereo not shown) [Compound 864825]
52 | 96.1% | 0.46 | Oc1ccc(Nc2nc(N3CCCC3)c3ccccc3n2)cc1 [Compound 852615]
53 | 70.8% | 0.81 | COc1ccccc1CNC(=O)COC(=O)c1cc(-c2ccco2)nc2ccccc12 [Compound 17385737]
54 | 56.9% | 1.34 | Cc1ccc(NC(=O)CSc2nnc(-c3ccco3)c(-c3ccco3)n2)cc1 [Compound 860242]
55 | 58.4% | 0.32 | O=c1nc2s/c(=C\c3ccco3)c(=O)n2nc1Cc1ccc(F)cc1 [Compound 863170]
56 | 60.3% | 1.01 | O=C(COC(=O)c1ccc(S(=O)(=O)NCc2ccco2)cc1)NCC1CCCCC1 [Compound 16953469]
57 | 52.9% | 1.37 | O=C(CCCCCn1c(=S)[nH]c2ccccc2c1=O)NCc1ccc2c(c1)OCO2 [Compound 17402018]
58 | 51.1% | 1.04 | C[C@@H](C(=O)Nc1nc(-c2ccccn2)cs1)N1C(=O)C2CCCCC2C1=O (stereo partly shown) [Compound 16952892]
59 | 76.3% | 0.21 | CCN1CCN(c2ccc(NC(=O)c3cccc4ncccc34)cc2)CC1 [Compound 842582]
60 | 53% | 0.85 | COc1ccc(S(=O)(=O)N2Cc3ccccc3CC2C(=O)O)cc1 (stereo not shown) [Compound 16953199]
61 | 111.5% | 0.39 | CC1=C(N2C(=O)c3ccc4c5c(ccc(c35)C2=O)CC4)C(C)N(c2ccccc2)N1C (stereo not shown) [Compound 7978392]

Row | SMILES | % Activity | FRatio
62 | COc1cccc(C(=O)NC2CC3CCCC(C2)N3CC(=O)Nc2ccccc2)c1 (stereo not shown) [Compound 847772] | 90% | 0.72
